In the test the test system is splenocytes from naïve C57BI/6 mice. The test is classed as cell-based. The following applies: naïve splenocytes plus RMA-S pulsed with 10 uM peptide, IL-2 added after 4 days.

Where two headings read alike, the source gives them in different places.

For “KAVYNFATM [non-nitrated LCMV gp33 peptide]”, the “outgrowth of CD8^+ T cells” value is given as “not”. In addition, the “outgrowth of CD8^+ T cells” value (listed as conventional gp33-41 peptide) is given as “not observed”.

The values above are taken from US20040202647A1, “Compositions and methods related to nitrotyrosine - containing compounds as antigenic agents” (priority 2002, published 2004).
